For one assay, the system named is human NOMO-1 AML cells. The experiment in a line: Viability of human NOMO-1 AML cells (MTT, CellTiter 96). It is filed as cell-based. The settings on record: NOMO-1 cells, 10,000 cells/well, 72 h treatment, read-out: IC50 in inhibiting the viability of human NOMO-1 AML cells. As for the experimental part:
(§1) Cell viability and proliferation assay. Cell viability and proliferation were performed with CellTiter 96 Non-Radioactive Cell Proliferation Assay (MTT, […], Promega). To verify the function of METTL16 inhibitor, cancer cells were seeded into 96-well plate and treated with a series of drug concentration in triplicates. For the cell proliferation with METTL16 knockdown stable cell lines were seeded into 96-well plates, and cultured in the incubator at 37° C. with 5% CO2. 15 μl of the Dye Solution was added into each well. After incubation of 2-4 h, 100 μl of the Solubilization Solution/Stop Mix was added to each well. Finally, the absorbance was determined at 570 nm on the next day.
The compounds described herein were tested for their ability to inhibit the viability of human NOMO-1 AML cells. […] Cell viability. NOMO-1 cells were seeded into 96-well plate in the concentration of 10,000 cells/well and treated with compounds in triplicates for 72 h. Cell viability was assessed by CellTiter 96 Non-Radioactive Cell Proliferation Assay (MTT, G4100, Promega) following the manufacturer's protocols.

The next assay has as its system AML cells. The experiment in a line: Cell viability and growth in AML cells (FIGS. 9A-9B). In kind it is cell-based. As for the experimental part: as §1
The next assay has as its system AML and other cancers. The experiment in a line: Cell viability of cancer cell lines on CDH24 treatment (MTT). It is filed as cell-based, human. As for the experimental part:
as §1
FIG. 4A provides a Western blots analysis showing the levels of METTL16 expression in various AML cell lines (Kasumi-1, MONOMAC6 (MM6), K562, ML-2, 9.3ITD, U937) and normal bone marrow (BM) mononuclear cells. Actin served as a loading control. […] The values were detected by MTT assays 48 or 72 hours post treatment. In FIGS. 4A-4K: *p<0.05; **p<0.01; ***p<0.001; t test. Error bars, mean±SEM (n≥3)

Assay [1] has as its target T1, METTL16 (Homo sapiens, UniProt Q86W50).
T1 construct: endogenous in cells; host or cells: U937, Kasumi-1, MA9.3RAS (human AML cells)
T1 sequence (Q86W50 1-562): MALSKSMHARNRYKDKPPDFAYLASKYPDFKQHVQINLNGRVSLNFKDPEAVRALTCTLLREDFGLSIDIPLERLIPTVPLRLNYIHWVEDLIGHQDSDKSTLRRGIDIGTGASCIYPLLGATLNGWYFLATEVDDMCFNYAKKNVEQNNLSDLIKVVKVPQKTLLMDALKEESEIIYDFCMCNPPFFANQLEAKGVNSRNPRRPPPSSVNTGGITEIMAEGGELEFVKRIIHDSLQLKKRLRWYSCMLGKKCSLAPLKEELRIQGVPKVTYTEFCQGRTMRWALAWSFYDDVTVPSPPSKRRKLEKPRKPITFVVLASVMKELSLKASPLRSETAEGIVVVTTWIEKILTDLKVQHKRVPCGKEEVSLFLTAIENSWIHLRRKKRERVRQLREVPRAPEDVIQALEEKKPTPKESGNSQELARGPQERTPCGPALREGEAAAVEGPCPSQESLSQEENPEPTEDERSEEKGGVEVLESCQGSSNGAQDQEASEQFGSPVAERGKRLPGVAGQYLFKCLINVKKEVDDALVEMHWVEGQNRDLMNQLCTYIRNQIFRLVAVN
Kind of assay: Drug affinity responsive target stability (DARTS) in U937 cell lysates. It is filed as binding. The settings on record: CDH24 0.1 uM to 500 uM, pronase digestion, immunoblot. How it is done:
Drug Affinity Responsive Targets Stability (DARTS). […] In short, 4×10^7 U937 cells were collected, washed with chilled PBS, and lysed in 600 ul M-PER (78501, Thermo Fisher Scientific) supplement with protease inhibitor cocktail and phosphatase inhibitor cocktail. The cells were lysed on ice for 10 min, and centrifuged at 18,000 g for 10 min at 4° C. The supernatant was carefully transferred to a new tube. 10× TNC buffer (500 mM Tris-HCl with pH 8.0, 500 mM NaCl, 100 mM CaCl2) was added into lysate, the protein concentration was then detected by BCA assay. The protein concentration diluted with 1× TNC buffer was adjusted to 5 ug/ul. […] The reaction was quenched by addition of protease inhibitor cocktail and the sample was immediately placed on ice. 4× Laemmli Sample Buffer was added to lysate and denatured at 99° C. for 10 min. Finally, western blotting was used to determine the abundance of METTL16.
(§2) For DARTS, U937 cell lysates were treated with CDH-24 (from 0.1 uM to 500 uM) or DMSO; samples were subjected to pronase digestion and detected by immunoblotting. Actin was resistant to subtilizing under these conditions and served as a loading control. […] METTL16 knockdown by shRNAs was confirmed by western blots (FIG. 5D). […] In FIGS. 5A-5F: *p<005; **p<0.01: ***p<0001; t test. Error bars, mean±SEM (n≥3).

In assay [2] the target is T1, METTL16. The experiment in a line: Cellular thermal shift assay (CETSA) in U937 cells. It is filed as binding. The settings on record: 50 μM CDH24 1 h, different temperatures, immunoblot. How it is done:
Cellular Thermal Shift Assay (CETSA). […] Then, the cells were re-suspended in 1.5 ml PBS supplemented with protease inhibitor cocktail. And the cells were distributed into 10 different 200 ul 8-strip PCR tubes with 100 ul for each tube, heat shocked in the Bio-Rad T100 Thermal Cycler at indicated temperature for 3 min to denature proteins, and immediately cooled down at room temperature for 3 min. cells were lysed using dry ice and two repeated cycles of freeze-thaw, then centrifuged at 20,000 g for 20 min at 4° C. Soluble proteins, collected from the supernatant were denatured with 4× Laemmli Sample Buffer at 99° C. for 10 min. Finally, the protein samples were analyzed by western blot.
as §2
A general note: In western blotting, separated proteins are transferred to a membrane and probed.

The target in assay [3] is T1, METTL16. Kind of assay: m6A dot blot, global m6A in AML cells. In kind it is cell-based. How it is done: m^6A dot blot assay. Total RNA was purified with QIAzol regent, and mixed well with 3 volumes of RNA incubation buffer, then denatured at 65° C. for 5 minutes and cooling down on ice immediately. 200 ul of 10×SSC buffer (S6639, Sigma-Aldrich) was loaded onto the Amersham Hybond-N+ membrane for each well to pre-wet the membrane. Then one volume of 20×SSC buffer was added into the RNA samples before dotted onto the membrane. The UV irradiation was used to crosslink RNA to the membrane. After crosslink, the membrane was stained by 0.02% methylene blue and scanned as loading control. Then, the membrane was blocked with 5% nonfat dry milk at room temperature for 1 h and incubated with anti-m6A antibody (1:2000, Synaptic Systems) overnight at 4° C. Next day, the membrane was incubated with the HRP-conjugated goat anti-rabbit IgG (ab6721, abcam) at room temperature for 1 h and developed with pierce ECL Western blotting Substrate (PI32106, Thermo Fisher).
MB, methyl blue (as loading control). FIGS. 6B-6C show gene-specific m^6A qPCR analysis of m^6A level changes in mRNA transcripts of several known target transcripts of METTL16 in U937 (FIG. 6B) or MA9.3RAS (FIG. 6C) AML cells upon 72 hours treatment of […], relative to cells treated with DMSO.

A word on the IC50: it is the concentration that gives 50% inhibition. With `N#Cc1ccc(C(=O)n2ccc3c4c(N)nc(N)nc4ccc32)cc1` [Compound (G)], in the assay with human NOMO-1 AML cells, the concentration for half-maximal inhibition (IC50) is 736 nM. Still for that read-out and setting: the same measure for `CC(=O)Nc1ccc(Cn2ccc3c4c(N)nc(N)nc4ccc32)cc1` [Compound D]: 1.4 nM. In the case of `Nc1ccc(Cn2ccc3c4c(N)nc(N)nc4ccc32)c(CO)c1` [CDH24-6], in the assay on AML cells, the “cell viability and growth in AML cells” value is “inhibit cell viability and growth”. Turning to `Nc1nc(N)c2c(ccc3c2ccn3Cc2ccc(Cl)cc2)n1` [Compound (F)], the IC50 in the assay on human NOMO-1 AML cells stood at 1.55 nM. With `Nc1ccc(Cn2ccc3c4c(N)nc(N)nc4ccc32)cc1` [CDH24], the “cell viability and growth in AML and other cancers” value with AML and other cancers (FIGS. 4A-4K) is given as “inhibitory effect”. Moreover, the “cell viability in ALL, lymphoma, cervical cancer, pancreatic cancer and glioblastoma cell lines” value in the assay on AML and other cancers (MTT assay 72 hours post treatment, series of concentrations) is “inhibitory effects”. Also, the “binding to METTL16 by DARTS” value at METTL16 [1] is “direct binding”. Moreover, the “binding to METTL16 by CETSA” value at METTL16 [2] is recorded as “direct binding”. Besides, the “methyltransferase activity of METTL16 and expression of METTL16 target genes” value at METTL16 [3] (FIGS. 6A-6C) is reported as “inhibitory effect”. Besides, at METTL16 [3] (U937, Kasumi-1 and MA9.3RAS AML cells, 48 hours treatment), the “levels of global m^6A” value is recorded as “increases”. Regarding `N#Cc1ccc(-n2ccc3c4c(N)nc(N)nc4ccc32)cc1` [Compound (E)], the IC50 with human NOMO-1 AML cells is 20.6 nM. For the molecule `Nc1ccc(CO)c(Cn2ccc3c4c(N)nc(N)nc4ccc32)c1` [CDH24-7], the “cell viability and growth in AML cells” value with AML cells was “inhibit cell viability and growth”. `Nc1nc(N)c2c(ccc3[nH]ccc32)n1` [Compound H]: the IC50 in the assay with human NOMO-1 AML cells was 931 nM.

For the origin of these results see patent publication US12576082B2, “METTL16 inhibitors and uses thereof” (City of Hope, priority 2019, dated 2026).
